Data from patent US20220117945A1, “ISOXAZOLE CARBOXAMIDE COMPOUNDS AND USES THEREOF” (NOVARTIS AG, priority 2017, published 2022).

Assays:
[1] = tested on: Atoh1 expression in mouse cerebellar neural precursor cells; assay: Atoh1 induction assay in mouse cerebellar neural precursor cells (NPCs), Atoh1-GFP reporter; type: cell-based; conditions: 10 doses 50 μM to 200 nM, 72 hours treatment, DMSO control = 1, more than 5 considered significant, read-out: fold difference (maximum fold difference of GFP average intensity in cell nuclei over the DMSO control)
In short: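 Neural precursors from postnatal day 3 transgenic Atoh1-GFP mouse cerebellum were expanded and banked, then seeded on matrigel at 2500 cells/well. Cells were treated 72 h with 10-point 1:2 dilutions (50 μM to 200 nM); DMSO served as negative control. Fixed cells were anti-GFP stained and read by high-content imaging.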

[2] = tested on: 6-day-postnatal mouse cochlea explants with hair cell damage; assay: Ex vivo hair cell induction assay using 6-day-postnatal mouse cochlea explants with hair cell damage; type: cell-based; conditions: P6 Atoh1-GFP mouse cochlea explants, neomycin-damaged; 3 to 10 μM compound for 8 days, then 4 days blank medium; mean ± SD; DMSO = 0%; more than 20% considered significant
Experimental: Compounds of the present disclosure were assessed for their ability to increase the Atoh1 expression in mouse cerebellar neural precursor cells. The ability of compounds of the present disclosure to induce new hair cell formation was assessed in ex vivo hair cell induction assay using 6-day-postnatal mouse cochlea explants with hair cell damage.
Ex Vivo Hair Cell Induction Assay Using 6-Day-Postnatal Mouse Cochlea Explants with Hair Cell Damage
P6, postnatal 6 days, Atoh1-GFP mice, the same mouse strain used for Atoh1 induction assay described before, were used in this assay. The otic capsule was exposed and the cochleae were micro-dissected. […] and in vitro cultured in serum free medium (culture medium: DMEM/F12+1% N2+2% B27+5 μg/ml ampicillin) at 37° C. under a standard gas atmosphere of humidified air/5% CO2. Inner ear hair cells were damaged by 1 mM Neomycin treatment for 1.25 h. After the neomycin treatment, explants were cultured in blank culture medium for 7 days before the treatment of selected compounds.
For compound administration, the cochlea explants were treated with 3 to 10 μM compound of the present disclosure, with DMSO as the negative control for 8 days with once compound/medium change. After 8 days treatment, the tested compound was removed. The explants were cultured in blank medium for additional 4 days. The cochlea explant cultures then were fixed with 4% w/v formalin and processed for Myo7a immunofluorescence (Myo7a is a specific marker for sensory hair cell) using the rabbit anti-Myo7a antibody (Protus Biosci #25-6790, 1:250 diluted in PBS containing 3% BSA). Rhodamine labeled Goat-anti-rabbit IgG (Molecular Prob. #R6394, 1:1000 diluted in PBS containing 3% BSA) was used as the secondary antibody to visualize the Myo7a positive cells. The images were collected and analyzed using the EVOS image system (Thermo-Fisher Scientific). […] The hair cell identity of the ectopically formed cells was confirmed by staining the cells with multiple hair cell markers.
The efficacy of hair cells induction in this assay is represented by the responsive length percentage of Atoh1 and Myo7a double positive cells in the damaged whole explants after compound treatment. The responsive length percentage was calculated according to the equation of ((the explant length with Atoh1 and Myo7a double positive cells/the full length of cochlea explant)*100%). Note the value of DMSO control is 0% due to total damage of hair cells, and any responsive length percentage more than 20% is considered as significant hair cell induction.

SMILES	maximal fold induction [1]	Responsive length % (explant length with Atoh1 and Myo7a double positive cells / full length of cochlea explant) [2]
N#CC1CCN(CCCCCNC(=O)c2cc(-c3cccs3)on2)CC1 [Example 56]	36.9	26.5 ± 9.4%
O=C(NCCCCCN1CC(F)C1)c1cc(-c2cccs2)on1 [Example 59]	29.1	54.1 ± 5.8%
NC(=O)C1CN(CCCCCNC(=O)c2cc(-c3ccc(F)cc3)on2)C1 [Example 65, N-(5-(3-carbamoylazetidin-1-yl)pentyl)-5-(4-fluorophenyl)isoxazole-3-carboxamide]	29.8	43.1 ± 7.6%
N#CCC1CN(CCCCCNC(=O)c2cc(-c3ccc(F)cc3)on2)C1 [Example 66]	25.1	61.5 ± 6.0%
O=C(NCCCCCN1CC(O)C1)c1cc(-c2ccc(F)cc2)on1 [Example 67]	18.9	58.2 ± 3.5%
